In the NIST ThermoML archive (doi:10.1021/je020163y):
± gives the expanded uncertainty stated by the source.

Conditions: Crystal; visual observation

In order of falling Normal melting temperature:
1. Cc1cc(O)c2c(=O)c3ccccc3sc2c1O [1,4-dihydroxy-3-methylthioxanthone]  240 ± 4 °C
2. O=c1c2ccccc2sc2ccccc12 [thioxanthone]  209 ± 2 °C
3. Cc1cc(O)c2c(=O)c3ccccc3sc2c1 [1-hydroxy3-methylthioxanthone]  149 ± 1 °C
4. O=c1c2ccccc2sc2cccc(O)c12 [1-hydroxythioxanthone]  119 ± 1 °C
